Tests used:
Assay type in all cases: cell-based, human
[1] = test system: LC3 proteins in U87 shCTRL and shTau cells; assay: LC3-II/LC3-I ratio by Western blot (autophagosomes); conditions: both cell types, 5 µM, 48 h
Method: Cells were lysed with freshly made RIPA buffer derivative (4.3 mL of TBS 1×, 50 µL of SDS 10%, 10 µL of EDTA 0.5 M, 500 µL of Triton 10×, and 1% inhibitors of protease and phosphatase). After 30 min of lysis at 4 °C under agitation, lysates were centrifuged at 10,000× g for 10 min at 4 °C. Equivalent amounts of proteins from the supernatant fraction were subjected to Western blot analysis. Protein samples were loaded (40 μg/lane) and separated on 10 or 12% sodium dodecyl sulfate-polyacrylamide gels. The separated proteins were transferred onto nitrocellulose blotting membrane using the Bio-Rad transfer system. […] The band intensity was quantified using the ImageJ v1.50g software. […] The band intensity was quantified using the NIH ImageJ v1.50g software.
Figure 4 Compounds (2) and (9) affect autophagy function machinery and alter mitochondrial morphology. […] (A) Quantities of autophagy LC3 proteins were analyzed by Western blot of U87 shCTRL and U87 shTau cells: for each sample, the ratio of the amount of mature (LC3-II) to immature (LC3-I) isoform was calculated as relative fold of the reference value (with or without the compound); significant statistical differences were calculated using one-way ANOVA with a post hoc Tukey–Kramer HSD test with (*) p < 0.01 from three independent experiments; ns: non-significant. […]

U87 shTau cells [2] = assay: Mitochondria network analysis (citrate synthase immunofluorescence), U87 shTau; conditions: 5 µM
Method: (§1) For indirect immunofluorescence of mitochondria, 10^4 cells were plated on cover glass and incubated for 24 h with compounds. Cells were then fixed in 4% formaldehyde (in PBS pH 7.4) for 20 min at RT, permeabilized with PBS-Triton X-100 0.5% for 10 min at RT. Immunostaining was carried out overnight at 4 °C with a primary anti-citrate synthase antibody (dilution 1:400 in PBS-BSA 3%; SC390693; SantaCruz Biotechnologies, Heidelberg, Germany). […] Each image was recorded with the CLSM’s spectral mode selecting specific domains of the emission spectrum. The Alexafluor488 and FITC fluorophores were excited at 488 nm with an argon laser, and fluorescence emission was collected between 496 nm and 535 nm. The TRITC fluorophore was excited at 543 nm with a helium–neon laser, and fluorescence was collected between 560 and 620 nm. […]
(§2) The analyses of mitochondria and microtubule networks were performed using, respectively, the ‘Mitochondria analyzer’ plugin for Fiji v1.54f software and the method described in our earlier work. Briefly, a series of images were transferred to the software and corrected for background fluorescence intensity contribution. Next, the surface of 50 single cells was measured by considering the cell shape as the boundary of labelling of actin or α-tubulin cytoskeletons (respectively for measurement on mitochondria or microtubules). […]

U87 shTau cells [3] = assay: Microtubule network analysis (alpha-tubulin immunofluorescence), U87 shTau; conditions: 0–20 µM, 24 h
Method: as §1, §2

| SMILES | ratio of mature LC3-II to immature LC3-I [1] | impact on the mitochondria networks (U87 shTau cells [2]) | change of microtubule network (U87 shTau cells [3]) |
| --- | --- | --- | --- |
| Nc1nc2ccc3oc(-c4cccc(Oc5ccccc5)c4)cc(=O)c3c2s1 [Compound 2, 2-amino-7-(3-phenoxyphenyl)-9H-chromeno [6,5-d]thiazol-9-one] | no statistically significant changes in ratios | none of the compounds had an impact | no change |
| Nc1nc2ccc3oc(C(=O)O)cc(=O)c3c2s1 [Compound 5] | no statistically significant changes in ratios | none of the compounds had an impact | no change |

From article PMC10606064, “2-Aminothiazole-Flavonoid Hybrid Derivatives Binding to Tau Protein and Responsible for Antitumor Activity in Glioblastoma” (International Journal of Molecular Sciences, 2023)
